Reference: patent publication US20240058335A1, “METHODS FOR TREATMENT OF CANCER USING ABL INHIBITORS AND DRUGS TARGETING THE MEVALONATE PATHWAY” (Duke University, priority 2021, published 2024)

Assays:
[1] = system: lung cancer cells (PC9, PC9 GR4, H460, H358); assay: Seahorse XF Analyzer Mito Stress Test (OCR: basal respiration, maximal respiration, ATP production); assay type: cell-based, human; details: IC50 doses, 24 hours; PC9, PC9 GR4, H460, H358
Description: (FIGS. 2A-2D) Seahorse XF Analyzer Mito Stress Test analysis of mitochondrial basal respiration, maximal respiration, and ATP production as measured by changes in oxygen consumption rate (OCR). […] (FIG. 2E) Mitochondrial basal respiration, maximal respiration, and ATP production as measured by Seahorse XF Analyzer's Mito Stress Test for PC9 cells harboring shRNAs against ABL1/ABL2 (shAA) and non-targeting control (shSCR). (FIGS. 2F-2G) Mitochondrial ROS (MitoROS) release as measured by FACS analysis of median fluorescent intensity (MFI) using Mitosox probe. […] Data are mean±SEM. […] Seahorse XF Analyzer Mito Stress Test analysis of mitochondrial basal respiration, maximal respiration, and ATP production as measured by changes in oxygen consumption rate (OCR) in the indicated lung cancer cells: (FIG. 8A) PC9; (FIG. 8B) PC9 GR4; (FIG. 8C) H460. […] Doses correspond to IC50 dose for each drug in the corresponding cell line. In each graph, for each of Basal Respiration, Maximal Respiration, and ATP production, data is shown from left to right for DMSO, GNF5, and Nilotinib. […] Cells were treated with IC50 doses for 24 hours (n=3). Data are mean±SEM. […] SEAHORSE MEASUREMENTS. Basal and maximal oxygen consumption rate and ATP production were measured using a Mito Stress test Kit and XF96 Extracellular Flux Analyzer (Seahorse Bioscience), according to manufacturer's instructions. Cells were plated in XF96 plates at 10,000 cells per well on Day 0. […] The plate was incubated in a non-CO2 incubator at 37° C. for 1 hr to equilibrate.

[2] = system: lung cancer cells (PC9, PC9 GR4, PC9 BrM3, H460, H358); assay: 72 hr growth inhibition / cell viability assay with drug combinations and metabolite rescue; assay type: cell-based, human; details: PC9-BrM3, sub-therapeutic doses, 72 hrs
[3] = system: PC9, PC9 GR4 and H460 cells; assay: MitoSOX staining, mitochondrial ROS by FACS; assay type: cell-based, human; details: EGFR mutant PC9 and PC9 GR4 cells, IC50 doses, 24 hours
HCC1954-LCC1 cells = assay: Intracranial injection model of HER2+ breast cancer brain metastasis; assay type: in vivo, mice; details: oral gavage
Experimental: Nude mice were injected intracranially with HCC1954-LCC1 cells on Day 0. On Day 10, mice were divided evenly between treatment groups (Vehicle or GNF5) based on tumor burden and weight. Tumors were monitored weekly by BLI until experimental endpoint (Day 55). (FIG. 15A) Overall survival curve of nude mice injected intracranially with HCC1954-LCC1 and treated with vehicle (n=9) or GNF5 (n=10) and representative BLI images of mice at day 33 post-injection. (FIG. 16B) Overall survival curve of nude mice injected intracranially with HCC1954-LCC1 ABL1/2 KO (n=15) or control cells (n=15) and representative of BLI images of mice at day 21 post-injection. Statistical analysis was performed using Log-rank (Mantel-Cox) test.

PC9 cells = details: read-out: Calculated IC50, dose-response assay
PC9 GR4 cells = assay: Cell viability dose-response assay (CellTiter-Glo), IC50 calculation; assay type: cell-based, human; details: PC9 GR4; dose-response assay; read-out: Calculated IC50
H460 cells = assay: as above; assay type: cell-based, human; details: H460; dose-response assay; read-out: Calculated IC50

SMILES: O=C(NCCO)c1cccc(-c2cc(Nc3ccc(OC(F)(F)F)cc3)ncn2)c1 [GNF5]
- mitochondrial function (basal respiration, maximal respiration, ATP production; OCR) [1]: greatly decreased
- cell survival in the presence of statins [2]: decreased cell survival
- mitochondrial reactive oxygen species (MitoROS) levels [3]: increased
- animal survival (HCC1954-LCC1 cells): markedly increased animal survival
- metastatic outgrowth and brain colonization (BLI) (HCC1954-LCC1 cells): impaired metastatic outgrowth and colonization of the brain parenchyma
- IC50 (PC9 cells): 10 µM
- IC50 (PC9 GR4 cells): 10 µM
- IC50 (H460 cells): 15 µM
